Test results published in patent US4024224A, “14-Aminodaunomycins, their preparation and use” (priority 1974, dated 1977).
In brackets after ≈: the same amount, converted by molar mass. Read-outs that look alike come from different tables or passages of the source.

Key:
[1] = tested on: Solid Sarcoma 180; assay: Antitumor activity and toxicity on solid Sarcoma 180 in CD 1 mice; assay type: in vivo; details: for Tumor Volume T/C %: 11th day; for Toxic Deaths: deaths/total
Description: (§1) The toxicity of the test compounds was evaluated by macroscopic autoptic examination mainly in terms of reduction in spleen size. The comparison of the effectiveness of the test compounds is based on the maximum increase in median survival time, as compared to untreated controls, over the dose range used. The number of Long Term Survivors (LTS) refers to tumor-free mice at the end of the experiment (60 days). Solid Sarcoma 180 was implanted subcutaneously by trocar in the flank of CD 1 mice according to standard methods. The mice were treated i.v. for 5 consecutive days, starting 1 day after the tumor implant. On the 11th day the tumor volume was measured by means of a caliper and evaluated according to the formula (a^2 × b)/2, a and b being the minimum and the maximum diameters respectively.

[2] = tested on: Mouse Embryo Fibroblasts; assay: Proliferation of uninfected mouse embryo fibroblasts (MEF); assay type: cell-based; details: Mus musculus, Fibroblast, 72 h, uninfected MEF, 3 days treatment, read-out: MEF No. of cells
Description: (§2) Mouse embryo fibroblasts (MEF) were plated on 35 mm. Falcon plastic dishes and infected 24 hours later with Moloney Sarcoma Virus (MSV) in the presence of DEAE-dextran (25 μg./ml.). The samples were then treated for 3 days with different concentrations of the compounds of the invention. The number of foci of transformed cells was microscopically determined 5 days after the infection. Uninfected MEF were similarly treated and at the end of the experiment, the cells were counted in an haemocytometer. In all the experiments, the cells were incubated in a 5% CO2 incubator at 37° C.
(§3) For use in these tests the compounds were dissolved in distilled water or in 5% ethyl alcohol in distilled water and then diluted in culture medium.

[3] = as above; assay type: cell-based; details: mouse, mouse embryo fibroblasts; calculated on dose-effects lines; uninfected MEF, 3 days treatment; read-out: MEF proliferation ID 50 (Inhibiting Dose 50%)
Description: as §2, §3

[4] = tested on: Moloney Sarcoma Virus (MSV); assay: Inhibition of MSV-M foci formation in mouse embryo fibroblasts; assay type: cell-based; details: Fibroblast, 120 h, 3 days treatment
Description: as §2, §3
The results of these tests are reported in Table I in terms of ID50 values (Inhibiting Dose 50%), calculated on dose-effects lines.

[5] = Antitumor activity and toxicity on ascites Sarcoma 180 in CD 1 mice; assay type: in vivo; details: mouse, in vivo, ip, read-out: % Toxic Deaths
Description: (§4) The antitumor activity of the compounds of the invention was tested on ascites Sarcoma 180.
(§5) Three month old CD 1 mice were used. Sarcoma 180 ascites cells were inoculated intraperitoneally (10^6 cells/mouse). For use in these tests, the compounds were dissolved in distilled water or in 5% ethyl alcohol in distilled water, then diluted with Ringers solution and administered i.p. 1 day after the tumor implant (10 ml./kg. of body weight).
as §1

[6] = tested on: ascites Sarcoma 180; assay: as above; assay type: in vivo; details: for % LTS: 60 days; for LTS (Long Term Survivors after 60 days): survivors/total; for Toxic Deaths: deaths/total
Description: as §4, §5, §1

[7] = 12.5 mg./kg. i.v. for 5 consecutive days
[8] = 25 mg./kg. i.v. for 5 consecutive days
[9] = 50 mg./kg. i.v. for 5 consecutive days
[10] = 0.2 mg./kg. i.p. 1 day after tumor implant
[11] = 1 mg./kg. i.p. 1 day after tumor implant
[12] = 5 mg./kg. i.p. 1 day after tumor implant
[13] = 12.5 mg./kg. i.p. 1 day after tumor implant
[14] = 25 mg./kg. i.p. 1 day after tumor implant
[15] = 50 mg./kg. i.p. 1 day after tumor implant
[16] = 75 mg./kg. i.p. 1 day after tumor implant
[17] = 100 mg./kg. i.p. 1 day after tumor implant
[18] = 200 mg./kg. i.p. 1 day after tumor implant

## COc1cccc2c1C(=O)c1c(O)c3c(c(O)c1C2=O)C[C@@](O)(C(=O)CN(CCO)CCO)C[C@@H]3O[C@H]1C[C@H](N)[C@H](O)[C@H](C)O1 [14-diethanolaminodaunomycin]
[1]; [7]
  Tumor Volume T/C %: 82%
  Toxic Deaths: 1/5
[1]; [8]
  Tumor Volume T/C %: 66%
  Toxic Deaths: 1/5
[1]; [9]
  Tumor Volume T/C %: 44%
  Toxic Deaths: 0/5
[1]; at non-toxic doses
  inhibition of tumor growth on solid Sarcoma 180: marked inhibition of tumor growth, at non-toxic doses
[2]; dose 0.0062 μg/ml
  activity at 0.0062 µg/mL: 100%
[2]; dose 0.0250 μg/ml
  activity at 0.025 µg/mL: 95%
[2]; dose 0.1 μg/ml
  activity at 0.1 µg/mL: 56%
[2]; dose 0.4 μg/ml
  activity at 0.4 µg/mL: 25%
[3]
  IC50 at 72 h: 0.13 µg/mL (≈ 0.206 µM)
[4]; calculated on dose-effects lines, read-out: MSV-M foci ID 50 (Inhibiting Dose 50%)
  IC50: 0.052 µg/mL (≈ 0.0825 µM)
[4]; dose 0.0062 μg/ml, foci counted 5 days after infection, read-out: MSV-M No. of foci
  activity at 0.0062 µg/mL: 75%
[4]; dose 0.0250 μg/ml, foci counted 5 days after infection, read-out: MSV-M No. of foci
  activity at 0.025 µg/mL: 73%
[4]; dose 0.1 μg/ml, foci counted 5 days after infection, read-out: MSV-M No. of foci
  activity at 0.1 µg/mL: 21%
[4]; dose 0.4 μg/ml, foci counted 5 days after infection, read-out: MSV-M No. of foci
  activity at 0.4 µg/mL: 0%
[5]; 0.2 mg./kg. i.p.
  mortality: 0%
[5]; 1 mg./kg. i.p.
  mortality: 0%
[5]; 5 mg./kg. i.p.
  mortality: 0%
[5]; 12.5 mg./kg. i.p.
  mortality: 0%
[5]; 25 mg./kg. i.p.
  mortality: 0%
[5]; 50 mg./kg. i.p.
  mortality: 0%
[5]; 75 mg./kg. i.p.
  mortality: 10%
[5]; 100 mg./kg. i.p.
  mortality: 42%
[5]; 200 mg./kg. i.p.
  mortality: 100%
[6]; [10]
  T/C (median survival time, % over untreated controls): 106%
  % LTS: 0%
  LTS (Long Term Survivors after 60 days): 0/10
[6]; 0.2 mg./kg. i.p.
  Toxic Deaths: 0/10
[6]; [11]
  T/C (median survival time, % over untreated controls): 103%
  % LTS: 0%
  LTS (Long Term Survivors after 60 days): 0/10
[6]; 1 mg./kg. i.p.
  Toxic Deaths: 0/10
[6]; [12]
  T/C (median survival time, % over untreated controls): 124%
  % LTS: 0%
  LTS (Long Term Survivors after 60 days): 0/10
[6]; 5 mg./kg. i.p.
  Toxic Deaths: 0/10
[6]; [13]
  T/C (median survival time, % over untreated controls): 181%
  % LTS: 0%
  LTS (Long Term Survivors after 60 days): 0/10
[6]; 12.5 mg./kg. i.p.
  Toxic Deaths: 0/10
[6]; [14]
  T/C (median survival time, % over untreated controls): 187%
  % LTS: 20%
  LTS (Long Term Survivors after 60 days): 4/20
[6]; 25 mg./kg. i.p.
  Toxic Deaths: 0/20
[6]; [15]
  T/C (median survival time, % over untreated controls): 175%
  % LTS: 23%
  LTS (Long Term Survivors after 60 days): 4/17
[6]; 50 mg./kg. i.p.
  Toxic Deaths: 0/17
[6]; [16]
  T/C (median survival time, % over untreated controls): 170%
  % LTS: 0%
  LTS (Long Term Survivors after 60 days): 0/10
[6]; 75 mg./kg. i.p.
  Toxic Deaths: 1/10
[6]; [17]
  T/C (median survival time, % over untreated controls): 83%
  % LTS: 0%
  LTS (Long Term Survivors after 60 days): 0/7
[6]; 100 mg./kg. i.p.
  Toxic Deaths: 3/7
[6]; [18]
  T/C (median survival time, % over untreated controls): 25%
  % LTS: 0%
  LTS (Long Term Survivors after 60 days): 0/7
[6]; 200 mg./kg. i.p.
  Toxic Deaths: 7/7
